Test results as given in ChEMBL document CHEMBL1201862, “PubChem BioAssay data set” (2004).
Activity calls are given as the source filed them.

Assays:
Estrogen receptor beta [1] = biological target: T1, Estrogen receptor beta (Homo sapiens, UniProt Q92731);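 also: recombinant ER-beta bound to coactivator SRC1 peptide in presence of estradiol agonist; inhibitors block coactivator peptide binding and lower the FRET signal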
Estrogen receptor = biological target: T2, Estrogen receptor (Homo sapiens, UniProt P03372);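 also: potency for inhibiting coactivator peptide recruitment to the receptor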
T2 sequence (P03372 whole entry): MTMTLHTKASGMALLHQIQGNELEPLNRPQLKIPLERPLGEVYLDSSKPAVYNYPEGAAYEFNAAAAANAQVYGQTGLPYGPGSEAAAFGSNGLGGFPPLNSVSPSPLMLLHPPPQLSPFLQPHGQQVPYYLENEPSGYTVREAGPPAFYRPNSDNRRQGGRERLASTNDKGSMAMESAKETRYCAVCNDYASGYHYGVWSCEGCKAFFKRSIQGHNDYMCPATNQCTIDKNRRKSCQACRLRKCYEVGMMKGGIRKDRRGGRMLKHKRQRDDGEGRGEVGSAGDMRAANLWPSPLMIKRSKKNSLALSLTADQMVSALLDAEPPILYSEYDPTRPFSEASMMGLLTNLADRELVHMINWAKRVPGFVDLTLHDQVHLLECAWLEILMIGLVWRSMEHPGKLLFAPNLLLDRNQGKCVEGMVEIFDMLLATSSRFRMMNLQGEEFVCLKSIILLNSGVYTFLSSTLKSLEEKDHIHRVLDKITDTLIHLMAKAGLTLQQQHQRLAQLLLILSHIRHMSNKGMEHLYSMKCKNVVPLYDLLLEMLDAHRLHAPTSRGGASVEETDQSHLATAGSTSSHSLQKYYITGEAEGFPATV

Estrogen receptor beta [2] = biological target: T1, Estrogen receptor beta; assay: blockers of SRC-3 recruitment to ERβ – biochemical, ELISA, streptavidin-HRP readout, orthogonal assay, confirmation (AID 1060)
[3] = biological target: T3, Sphingosine 1-phosphate receptor 2 (Homo sapiens, UniProt O95136); assay: Dose Response Cell Based Assay for Agonists of the S1P2 Receptor of Purchased Analogues. [Related pubchem assays: 729, 843, 854, 736 ]; format: functional
T3 sequence (O95136 whole entry): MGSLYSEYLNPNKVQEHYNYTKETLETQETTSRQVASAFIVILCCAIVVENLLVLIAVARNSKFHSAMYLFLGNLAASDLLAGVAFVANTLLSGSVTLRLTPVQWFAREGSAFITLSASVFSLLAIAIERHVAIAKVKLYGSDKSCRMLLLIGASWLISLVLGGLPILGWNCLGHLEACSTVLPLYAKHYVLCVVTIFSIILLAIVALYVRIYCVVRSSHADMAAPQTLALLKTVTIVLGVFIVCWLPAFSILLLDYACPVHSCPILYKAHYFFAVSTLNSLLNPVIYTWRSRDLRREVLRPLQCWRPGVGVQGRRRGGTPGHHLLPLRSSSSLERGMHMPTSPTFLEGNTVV

[4] = biological target: Lytic switch protein BZLF1 (Epstein-Barr virus (strain B95-8) (HHV-4) (Human herpesvirus 4), UniProt P03206); assay: inhibition of BZLF1 ZTA DNA binding – biochemical, fluorescence polarization, Epstein-Barr virus, 1536-well, counter-screen for EBNA-1 inhibitor project, dose response (AID 2377); parameters: species or system human gammaherpesvirus 4;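 also: fluorescence polarization of Cy5-labelled ZRE DNA probe bound by purified Zta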
Lytic switch protein BZLF1, sequence (P03206 whole entry): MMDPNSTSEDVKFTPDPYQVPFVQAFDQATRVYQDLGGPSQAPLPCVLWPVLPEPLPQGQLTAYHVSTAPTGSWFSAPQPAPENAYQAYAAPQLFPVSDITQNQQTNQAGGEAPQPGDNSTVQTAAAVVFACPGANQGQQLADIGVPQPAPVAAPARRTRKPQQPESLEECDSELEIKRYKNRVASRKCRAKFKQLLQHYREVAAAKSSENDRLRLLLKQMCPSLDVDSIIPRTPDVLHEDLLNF

[5] = biological target: Epstein-Barr nuclear antigen 1 (Epstein-Barr virus (strain B95-8) (HHV-4) (Human herpesvirus 4), UniProt P03211); assay: inhibition of EBV nuclear antigen 1 DNA binding – biochemical, fluorescence polarization, 1536-well, dose response (AID 2381); parameters: species or system human gammaherpesvirus 4;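 also: fluorescence polarization of a Cy5 DNA probe bound by EBNA-1 protein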
Epstein-Barr nuclear antigen 1, sequence (P03211 whole entry): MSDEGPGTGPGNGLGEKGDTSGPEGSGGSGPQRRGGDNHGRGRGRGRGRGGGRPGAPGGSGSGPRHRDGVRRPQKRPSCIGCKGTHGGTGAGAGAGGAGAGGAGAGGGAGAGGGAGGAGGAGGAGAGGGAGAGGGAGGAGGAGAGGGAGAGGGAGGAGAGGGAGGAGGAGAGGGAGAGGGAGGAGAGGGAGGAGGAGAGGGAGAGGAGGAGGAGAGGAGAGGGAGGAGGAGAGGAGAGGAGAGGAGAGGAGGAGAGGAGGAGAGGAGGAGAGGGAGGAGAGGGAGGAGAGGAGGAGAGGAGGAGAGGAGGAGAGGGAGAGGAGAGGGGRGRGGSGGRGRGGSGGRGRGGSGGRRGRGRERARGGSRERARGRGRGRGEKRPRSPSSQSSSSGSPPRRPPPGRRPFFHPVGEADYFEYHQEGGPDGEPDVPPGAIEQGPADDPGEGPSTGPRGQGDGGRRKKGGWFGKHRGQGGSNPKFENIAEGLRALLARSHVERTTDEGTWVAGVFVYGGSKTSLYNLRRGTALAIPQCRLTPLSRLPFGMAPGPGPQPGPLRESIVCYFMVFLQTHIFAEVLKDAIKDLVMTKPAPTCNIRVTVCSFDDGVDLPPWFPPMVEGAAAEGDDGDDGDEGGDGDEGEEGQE

[6] = biological target: T4, Rac GTPase-activating protein 1 (Homo sapiens, UniProt Q9H0H5); assay: blockers of MgcRacGAP-driven Rac1 GTP hydrolysis – biochemical, ADP Hunter fluorescence, primary and confirmatory, confirmation (AID 624330); format: functional
T4 sequence (Q9H0H5 whole entry): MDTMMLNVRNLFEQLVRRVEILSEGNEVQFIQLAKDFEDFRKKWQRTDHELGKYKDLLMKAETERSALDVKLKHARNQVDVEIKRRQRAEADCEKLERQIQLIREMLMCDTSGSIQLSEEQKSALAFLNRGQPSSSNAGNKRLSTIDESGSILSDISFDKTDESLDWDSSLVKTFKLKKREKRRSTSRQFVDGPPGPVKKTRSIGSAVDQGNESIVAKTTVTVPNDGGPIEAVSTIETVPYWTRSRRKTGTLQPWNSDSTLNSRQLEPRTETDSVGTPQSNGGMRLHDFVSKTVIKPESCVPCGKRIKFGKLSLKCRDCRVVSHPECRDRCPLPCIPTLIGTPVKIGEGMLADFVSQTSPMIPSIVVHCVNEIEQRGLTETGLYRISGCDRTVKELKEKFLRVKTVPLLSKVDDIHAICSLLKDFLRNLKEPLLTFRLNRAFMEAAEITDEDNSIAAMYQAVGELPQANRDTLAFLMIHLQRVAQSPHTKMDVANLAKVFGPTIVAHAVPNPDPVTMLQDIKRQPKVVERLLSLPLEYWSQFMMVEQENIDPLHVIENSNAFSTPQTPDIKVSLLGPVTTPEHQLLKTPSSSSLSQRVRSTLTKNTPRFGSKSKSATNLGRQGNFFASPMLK

[7] = biological target: T5, Neuropeptide Y receptor type 1 (Homo sapiens, UniProt P25929); assay: IC50 of human NPY-Y1 blockers – cell-based, dose response (AID 1277); format: functional
T5 sequence (P25929 whole entry): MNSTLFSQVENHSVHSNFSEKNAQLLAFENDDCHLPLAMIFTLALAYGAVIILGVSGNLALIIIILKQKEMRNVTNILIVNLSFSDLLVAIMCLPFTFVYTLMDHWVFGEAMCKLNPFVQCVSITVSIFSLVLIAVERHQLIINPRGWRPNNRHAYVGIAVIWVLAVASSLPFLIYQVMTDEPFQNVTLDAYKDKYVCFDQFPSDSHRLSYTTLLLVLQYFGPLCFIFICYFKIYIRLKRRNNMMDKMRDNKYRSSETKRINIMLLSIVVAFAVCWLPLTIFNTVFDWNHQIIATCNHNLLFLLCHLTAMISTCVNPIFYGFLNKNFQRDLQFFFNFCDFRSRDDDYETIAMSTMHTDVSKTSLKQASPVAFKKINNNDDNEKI

[8] = biological target: T6, Neuropeptide Y receptor type 2 (Homo sapiens, UniProt P49146); assay: IC50 for human NPY-Y2 blockade – cell-based, counter-screen for NPY-Y1 antagonist project, dose response (AID 1278); format: functional
T6 sequence (P49146 whole entry): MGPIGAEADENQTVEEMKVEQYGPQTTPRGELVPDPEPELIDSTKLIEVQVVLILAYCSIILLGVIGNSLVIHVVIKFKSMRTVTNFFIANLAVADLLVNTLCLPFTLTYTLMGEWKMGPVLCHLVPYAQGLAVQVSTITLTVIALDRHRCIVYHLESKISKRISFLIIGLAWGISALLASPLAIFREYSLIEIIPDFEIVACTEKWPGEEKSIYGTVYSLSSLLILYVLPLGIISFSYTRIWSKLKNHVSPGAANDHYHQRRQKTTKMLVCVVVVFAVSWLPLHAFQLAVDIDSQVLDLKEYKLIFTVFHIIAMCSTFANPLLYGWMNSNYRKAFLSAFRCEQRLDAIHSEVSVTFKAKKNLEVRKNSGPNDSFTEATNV

[9] = biological target: Sphingosine 1-phosphate receptor 3 (Homo sapiens, UniProt Q99500); assay: Dose Response Cell-Based Assay for Agonists of the Sphingosine 1-Phosphate Receptor 3 (S1P3): Purchased Analogues. [Related pubchem assays: 373, 439 ]; format: functional
Sphingosine 1-phosphate receptor 3, sequence (Q99500 whole entry): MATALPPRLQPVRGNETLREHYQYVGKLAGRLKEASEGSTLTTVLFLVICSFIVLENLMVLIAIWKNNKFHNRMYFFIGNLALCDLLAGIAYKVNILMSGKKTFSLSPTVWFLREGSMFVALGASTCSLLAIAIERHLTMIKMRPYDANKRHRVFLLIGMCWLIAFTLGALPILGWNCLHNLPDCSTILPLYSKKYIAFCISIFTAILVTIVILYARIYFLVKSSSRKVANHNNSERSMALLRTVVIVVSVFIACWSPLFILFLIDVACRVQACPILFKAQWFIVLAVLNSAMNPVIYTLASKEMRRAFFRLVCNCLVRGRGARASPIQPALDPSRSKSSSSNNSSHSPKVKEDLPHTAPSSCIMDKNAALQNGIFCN

[10] = biological target: Sphingosine 1-phosphate receptor 1 (Homo sapiens, UniProt P21453); assay: Dose Response Cell-Based Assay for Agonists of the Sphingosine 1-Phosphate Receptor 1 (S1P1): Purchased Analogues. [Related pubchem assays: 1192, 373, 439 ]; format: functional
Sphingosine 1-phosphate receptor 1, sequence (P21453 whole entry): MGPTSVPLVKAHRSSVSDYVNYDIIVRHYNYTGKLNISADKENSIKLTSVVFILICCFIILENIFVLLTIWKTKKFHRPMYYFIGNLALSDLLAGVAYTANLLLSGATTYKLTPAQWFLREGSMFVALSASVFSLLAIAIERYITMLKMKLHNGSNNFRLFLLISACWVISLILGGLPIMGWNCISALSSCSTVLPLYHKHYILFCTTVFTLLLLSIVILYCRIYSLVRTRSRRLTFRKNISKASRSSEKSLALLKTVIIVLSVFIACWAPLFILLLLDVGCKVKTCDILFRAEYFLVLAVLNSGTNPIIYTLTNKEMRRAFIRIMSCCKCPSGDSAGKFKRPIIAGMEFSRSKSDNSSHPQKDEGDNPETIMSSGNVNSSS

[11] = biological target: T3, Sphingosine 1-phosphate receptor 2; assay: Dose Response Cell-Based Assay for Agonists of the Sphingosine 1-Phosphate Receptor 2 (S1P2): Purchased Analogues. [Related pubchem assays: 1192, 373, 439 ]; format: functional
[12] = A High Throughput Confirmatory Assay used to Identify Novel Compounds that Inhibit Mycobacterium Tuberculosis in the absence of Glycerol.; format: functional

T1 sequence (Q92731 whole entry): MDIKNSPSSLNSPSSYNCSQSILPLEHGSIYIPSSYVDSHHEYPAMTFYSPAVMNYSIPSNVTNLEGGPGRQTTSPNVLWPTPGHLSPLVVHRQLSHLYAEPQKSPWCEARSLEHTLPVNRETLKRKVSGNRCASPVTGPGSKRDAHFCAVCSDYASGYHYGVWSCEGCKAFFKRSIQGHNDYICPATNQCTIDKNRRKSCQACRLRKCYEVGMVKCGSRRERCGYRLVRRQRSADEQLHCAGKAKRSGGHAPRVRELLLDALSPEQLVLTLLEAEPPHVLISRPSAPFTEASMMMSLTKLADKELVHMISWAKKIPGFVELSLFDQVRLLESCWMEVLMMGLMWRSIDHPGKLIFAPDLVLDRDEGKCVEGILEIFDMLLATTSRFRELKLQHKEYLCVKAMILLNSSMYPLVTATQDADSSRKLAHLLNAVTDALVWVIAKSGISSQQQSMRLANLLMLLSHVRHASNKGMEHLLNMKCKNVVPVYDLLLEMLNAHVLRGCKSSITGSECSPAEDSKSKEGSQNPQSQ

Cc1cc(C)c(S(=O)(=O)/N=C2\C=CC(=O)C(Cl)=C2)c(C)c1
IC50 (Estrogen receptor beta [1]): 4.69 µM (active)
IC50 (Estrogen receptor): 10.3 µM (active)
IC50 (Estrogen receptor beta [2]): 16.5 µM (not active)

COc1ccc(C(N)=O)c(OCC(=O)c2cc(C)n(Cc3ccccc3)c2C)c1
EC50 [3]: > 30 µM (not active)

COc1ccc(CN=C(S)N2CCN(S(=O)(=O)c3cccc(F)c3)CC2)cc1
IC50 [4]: > 111 µM (not active)
IC50 [5]: 5.94 µM (active)

COc1ccc(Oc2c(C)n[nH]c2-c2ccc(O)cc2O)cc1
IC50 [6]: 47.4 µM (active)
IC50 [7]: > 35 µM (not active)
IC50 [8]: > 35 µM (not active)

NC(=O)C1CCN(C(=O)c2cc(-c3ccccc3)on2)CC1
EC50 [9]: > 50 µM (not active)
EC50 [10]: > 50 µM (not active)
EC50 [11]: > 10 µM (not active)

O=C(CCN1C(=O)/C(=C/c2ccccc2)SC1=S)Nc1ccccn1
IC50 [12]: > 100 µM (active)
